The record followed here is patent publication US8846933B2, “N-link hydroxamic acid derivatives useful as antibacterial agents” (Pfizer Inc., priority 2009, dated 2014).

For assay [1], the system named is Escherichia coli EC-1: VOGEL, mouse virulent. Description: MIC determination (CLSI), strain EC-1. As to conditions: strain EC-1; unit assumed. Type of assay: cell-based. An outline of the steps:
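The mouse-virulent VOGEL isolate of E. coli, EC-1, served as test organism. Minimum inhibitory concentration was measured by CLSI dilution methodology (M7-A7; M100-S18 standards).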

Assay [2] deals with Pseudomonas aeruginosa UI-18: Wild-type (PA-7). Briefly: MIC determination (CLSI), strain PA-7. Type of assay: cell-based. As to conditions: strain PA-7; unit assumed. An outline of the steps:
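Strain tested was P. aeruginosa UI-18, a wild-type isolate labelled PA-7. Minimum inhibitory concentrations followed CLSI dilution methodology for aerobically growing bacteria (M7-A7, M100-S18).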

For `COc1ccc(-c2ccn(CC[C@](C)(C(=O)NO)S(C)(=O)=O)c(=O)c2)cn1` [Example 285, (2R)-N-hydroxy-4-(6-methoxy-2′-oxo-3,4′-bipyridin-1′(2′H)-yl)-2-methyl-2-(methylsulfonyl)butanamide], the EC-1 (MIC) in assay [1] is 4 µg/mL. In addition, the PA-7 (MIC) in assay [2] worked out at 4 µg/mL.

For the compound `Cc1cc(-c2cc(CO)no2)ccc1-c1ccn(CCC(C)(C(=O)NO)S(C)(=O)=O)c(=O)c1` (centres unmarked) [Example 286], the EC-1 (MIC) in assay [1] turned out to be 16 µg/mL. The compound also returned a PA-7 (MIC) in assay [2] of 16 µg/mL.

In the case of `CC(CCn1ccc(-c2ccc(Oc3cccnc3)cc2)cc1=O)(C(=O)NO)S(C)(=O)=O` (centres unmarked) [Example 287, N-hydroxy-2-methyl-2-(methylsulfonyl)-4-{2-oxo-4-[4-(pyridin-3-yloxy)phenyl]pyridin-1(2H)-yl}butanamide], the EC-1 (MIC) in assay [1] is 0.5 µg/mL. Moreover, the PA-7 (MIC) in assay [2] was found to be 4 µg/mL.

The compound `COc1ccc2ccc(-c3ccn(CCC(C)(C(=O)NO)S(C)(=O)=O)c(=O)c3)cc2c1` (centres unmarked) [Example 288, N-hydroxy-4-[4-(7-methoxy-2-naphthyl)-2-oxopyridin-1(2H)-yl]-2-methyl-2-(methylsulfonyl)butanamide] returned an EC-1 (MIC) in assay [1] of 0.125 µg/mL. The same compound registered a PA-7 (MIC) in assay [2] of 4 µg/mL.

In the case of `Cc1cc(OCCCn2cncn2)ccc1-c1ccn(CCC(C)(C(=O)NO)S(C)(=O)=O)c(=O)c1` (centres unmarked) [Example 289, N-hydroxy-2-methyl-2-(methylsulfonyl)-4-[4-{2-methyl-4-[3-(1H-1,2,4-triazol-1-yl)propoxy]phenyl}-2-oxopyridin-1(2H)-yl]butanamide], in assay [1], the EC-1 (MIC) was 32 µg/mL. In addition, the PA-7 (MIC) in assay [2] was determined as 32 µg/mL.

The compound `CC(CCn1ccc(-c2ccc(OCCCn3cncn3)c(Cl)c2)cc1=O)(C(=O)NO)S(C)(=O)=O` (centres unmarked) [Example 290, 4-[4-{3-chloro-4-[3-(1H-1,2,4-triazol-1-yl)propoxy]phenyl}-2-oxopyridin-1(2H)-yl]-N-hydroxy-2-methyl-2-(methylsulfonyl)butanamide] yielded an EC-1 (MIC) in assay [1] of 16 µg/mL. In assay [2], this compound gave a PA-7 (MIC) of 16 µg/mL.

`CC(CCn1ccc(-c2ccc(OCCCn3cncn3)cc2Cl)cc1=O)(C(=O)NO)S(C)(=O)=O` (centres unmarked) [Example 291, 4-[4-{2-chloro-4-[3-(1H-1,2,4-triazol-1-yl)propoxy]phenyl}-2-oxopyridin-1(2H)-yl]-N-hydroxy-2-methyl-2-(methylsulfonyl)butanamide] displayed an EC-1 (MIC) in assay [1] of 16 µg/mL. The compound further returned a PA-7 (MIC) in assay [2] of 16 µg/mL.

Turning to `CC(CCn1ccc(-c2ccc(OCCCn3cncn3)c(Cl)c2Cl)cc1=O)(C(=O)NO)S(C)(=O)=O` (centres unmarked) [Example 292, 4-[4-{2,3-dichloro-4-[3-(1H-1,2,4-triazol-1-yl)propoxy]phenyl}-2-oxopyridin-1(2H)-yl]-N-hydroxy-2-methyl-2-(methylsulfonyl)butanamide], the EC-1 (MIC) in assay [1] was determined as 8 µg/mL. In assay [2], this compound registered a PA-7 (MIC) of 16 µg/mL.

In assay [1], `Cc1cc(-c2ccn(CCC(C)(C(=O)NO)S(C)(=O)=O)c(=O)c2)ccc1OCCCn1cncn1` (centres unmarked) [Example 293, N-hydroxy-2-methyl-2-(methylsulfonyl)-4-[4-{3-methyl-4-[3-(1H-1,2,4-triazol-1-yl)propoxy]phenyl}-2-oxopyridin-1(2H)-yl]butanamide] registered an EC-1 (MIC) of 4 µg/mL. This compound also gave a PA-7 (MIC) in assay [2] of 16 µg/mL.

Compound `CCCC(CCn1ccc(-c2ccccc2)cc1=O)(C(=O)NO)S(C)(=O)=O` (centres unmarked) [Example 294] had an EC-1 (MIC) in assay [1] greater than 64 µg/mL. This compound also registered a PA-7 (MIC) in assay [2] greater than 64 µg/mL.

In assay [1], `CC(CCn1ccc(-c2ccc(-c3cccnc3)cc2F)cc1=O)(C(=O)NO)S(C)(=O)=O` (centres unmarked) [Example 295, 4-[4-(2-fluoro-4-pyridin-3-ylphenyl)-2-oxopyridin-1(2H)-yl]-N-hydroxy-2-methyl-2-(methylsulfonyl)butanamide] came in with an EC-1 (MIC) of 1 µg/mL. In addition, the PA-7 (MIC) in assay [2] came to 8 µg/mL.

`CC(CCn1ccc(-c2c[nH]c3ccccc23)cc1=O)(C(=O)NO)S(C)(=O)=O` (centres unmarked) [Example 296, N-hydroxy-4-[4-(1H-indol-3-yl)-2-oxopyridin-1(2H)-yl]-2-methyl-2-(methylsulfonyl)butanamide] came in with an EC-1 (MIC) in assay [1] of 64 µg/mL. Further, the PA-7 (MIC) in assay [2] turned out to be 64 µg/mL.

`CC(CCn1ccc(-c2ccc(-c3cccnc3)c(F)c2)cc1=O)(C(=O)NO)S(C)(=O)=O` (centres unmarked) [Example 297, 4-[4-(3-fluoro-4-pyridin-3-ylphenyl)-2-oxopyridin-1(2H)-yl]-N-hydroxy-2-methyl-2-(methylsulfonyl)butanamide] yielded an EC-1 (MIC) in assay [1] of 1 µg/mL. In assay [2], the PA-7 (MIC) turned out to be 2 µg/mL.

For the compound `CC(CCn1ccc(-c2ccc(-c3ccncc3)c(F)c2)cc1=O)(C(=O)NO)S(C)(=O)=O` (centres unmarked) [Example 298, 4-[4-(3-fluoro-4-pyridin-4-ylphenyl)-2-oxopyridin-1(2H)-yl]-N-hydroxy-2-methyl-2-(methylsulfonyl)butanamide], the EC-1 (MIC) in assay [1] is 0.5 µg/mL. The PA-7 (MIC) in assay [2] is 4 µg/mL.

Compound `CC(CCn1ccc(-c2ccc3ccc(O)cc3c2)cc1=O)(C(=O)NO)S(C)(=O)=O` (centres unmarked) [Example 299, N-hydroxy-4-[4-(7-hydroxy-2-naphthyl)-2-oxopyridin-1(2H)-yl]-2-methyl-2-(methylsulfonyl)butanamide] yielded an EC-1 (MIC) in assay [1] of 1 µg/mL. The compound also gave a PA-7 (MIC) in assay [2] of 4 µg/mL.

In the case of `Cc1ccc2cc(-c3ccn(CCC(C)(C(=O)NO)S(C)(=O)=O)c(=O)c3)ccc2n1` (centres unmarked) [Example 300, N-hydroxy-2-methyl-4-[4-(2-methylquinolin-6-yl)-2-oxopyridin-1(2H)-yl]-2-(methylsulfonyl)butanamide], the EC-1 (MIC) in assay [1] came out at 4 µg/mL. This compound registered a PA-7 (MIC) in assay [2] of 8 µg/mL.

In assay [1], `Cc1cnc2ccc(-c3ccn(CCC(C)(C(=O)NO)S(C)(=O)=O)c(=O)c3)cc2c1` (centres unmarked) [Example 301, N-hydroxy-2-methyl-4-[4-(3-methylquinolin-6-yl)-2-oxopyridin-1(2H)-yl]-2-(methylsulfonyl)butanamide] displayed an EC-1 (MIC) of 4 µg/mL. The compound further returned a PA-7 (MIC) in assay [2] of 16 µg/mL.

For the compound `Cc1ccnc2ccc(-c3ccn(CCC(C)(C(=O)NO)S(C)(=O)=O)c(=O)c3)cc12` (centres unmarked) [Example 302, N-hydroxy-2-methyl-4-[4-(4-methylquinolin-6-yl)-2-oxopyridin-1(2H)-yl]-2-(methylsulfonyl)butanamide], in assay [1], the EC-1 (MIC) is 64 µg/mL. Moreover, in assay [2], the PA-7 (MIC) amounted to 16 µg/mL.

In the case of `C[C@@](CCn1ccc(-c2ccc(OCCN3CCC(O)CC3)c(Cl)c2Cl)cc1=O)(C(=O)NO)S(C)(=O)=O` [Example 303, (2R)-4-[4-{2,3-dichloro-4-[2-(4-hydroxypiperidin-1-yl)ethoxy]phenyl}-2-oxopyridin-1(2H)-yl]-N-hydroxy-2-methyl-2-(methylsulfonyl)butanamide], the EC-1 (MIC) in assay [1] amounted to 32 µg/mL. Also, the PA-7 (MIC) in assay [2] worked out at 16 µg/mL.

In assay [1], `C[C@@](CCn1ccc(-c2ccc(OCCN3CCOCC3)c(Cl)c2Cl)cc1=O)(C(=O)NO)S(C)(=O)=O` [Example 304, (2R)-4-{4-[2,3-dichloro-4-(2-morpholin-4-ylethoxy)phenyl]-2-oxopyridin-1(2H)-yl}-N-hydroxy-2-methyl-2-(methylsulfonyl)butanamide] showed an EC-1 (MIC) of 4 µg/mL. For the same compound, in assay [2], the PA-7 (MIC) stood at 16 µg/mL.

In the case of `Cc1ccc2ccc(-c3ccn(CCC(C)(C(=O)NO)S(C)(=O)=O)c(=O)c3)cc2n1` (centres unmarked) [Example 305, N-hydroxy-2-methyl-4-[4-(2-methylquinolin-7-yl)-2-oxopyridin-1(2H)-yl]-2-(methylsulfonyl)butanamide], the EC-1 (MIC) in assay [1] came out at 16 µg/mL. In assay [2], the PA-7 (MIC) is greater than 64 µg/mL.

The compound `CC(CCn1ccc(-c2cc3ccncc3cc2F)cc1=O)(C(=O)NO)S(C)(=O)=O` (centres unmarked) [Example 306, 4-[4-(7-fluoroisoquinolin-6-yl)-2-oxopyridin-1(2H)-yl]-N-hydroxy-2-methyl-2-(methylsulfonyl)butanamide] yielded an EC-1 (MIC) in assay [1] of 8 µg/mL. The compound further registered a PA-7 (MIC) in assay [2] of 4 µg/mL.

In turn, `CC(CCn1ccc(-c2cccc(OCCCO)c2F)cc1=O)(C(=O)NO)S(C)(=O)=O` (centres unmarked) [Example 307, 4-{4-[2-fluoro-3-(3-hydroxypropoxy)phenyl]-2-oxopyridin-1(2H)-yl}-N-hydroxy-2-methyl-2-(methylsulfonyl)butanamide] returned an EC-1 (MIC) in assay [1] of 16 µg/mL. In addition, the PA-7 (MIC) in assay [2] was determined as 16 µg/mL.

In assay [1], `Cc1cnc2cc(-c3ccn(CCC(C)(C(=O)NO)S(C)(=O)=O)c(=O)c3)ccc2c1` (centres unmarked) [Example 308, N-hydroxy-2-methyl-4-[4-(3-methylquinolin-7-yl)-2-oxopyridin-1(2H)-yl]-2-(methylsulfonyl)butanamide] returned an EC-1 (MIC) of 2 µg/mL. The compound further gave a PA-7 (MIC) in assay [2] of 4 µg/mL.

In the case of `CC(CCn1ccc(-c2ccc3cc(CO)ccc3c2)cc1=O)(C(=O)NO)S(C)(=O)=O` (centres unmarked) [Example 309, N-hydroxy-4-{4-[6-(hydroxymethyl)-2-naphthyl]-2-oxopyridin-1(2H)-yl}-2-methyl-2-(methylsulfonyl)butanamide], in assay [1], the EC-1 (MIC) turned out to be 1 µg/mL. The same compound returned a PA-7 (MIC) in assay [2] of 4 µg/mL.

In assay [1], `COc1ccc(-c2ccc(-c3ccn(CC[C@](C)(C(=O)NO)S(C)(=O)=O)c(=O)c3)cc2)cn1` [Example 310, (2R)-N-hydroxy-4-{4-[4-(6-methoxypyridin-3-yl)phenyl]-2-oxopyridin-1(2H)-yl}-2-methyl-2-(methylsulfonyl)butanamide] gave an EC-1 (MIC) of 0.125 µg/mL. Further, the PA-7 (MIC) in assay [2] worked out at 0.5 µg/mL.

In assay [1], `C[C@@](CCn1ccc(-c2ccc(OCC3CCN(C(=O)CO)CC3)cc2)cc1=O)(C(=O)NO)S(C)(=O)=O` [Example 311, (2R)-4-[4-{4-[(1-glycoloylpiperidin-4-yl)methoxy]phenyl}-2-oxopyridin-1(2H)-yl]-N-hydroxy-2-methyl-2-(methylsulfonyl)butanamide] showed an EC-1 (MIC) of 1 µg/mL. Also, the PA-7 (MIC) in assay [2] worked out at 4 µg/mL.

Turning to `C[C@@](CCn1ccc(-c2ccc(OCCC3CCN(C(=O)CO)CC3)cc2)cc1=O)(C(=O)NO)S(C)(=O)=O` [Example 312, (2R)-4-[4-{4-[2-(1-glycoloylpiperidin-4-yl)ethoxy]phenyl}-2-oxopyridin-1(2H)-yl]-N-hydroxy-2-methyl-2-(methylsulfonyl)butanamide], the EC-1 (MIC) in assay [1] is 0.5 µg/mL. The compound further displayed a PA-7 (MIC) in assay [2] of 4 µg/mL.
